Measurements: ChEMBL document CHEMBL1152667, “Synthesis and radiopharmacological investigation of 3-[4'-[(18)F]fluorobenzylidene]indolin-2-one as possible tyrosine kinase inhibitor” (Bioorg Med Chem, 2009)

How the values were obtained:
Intestine = assay: Biodistribution in Wistar rat intestine at 1.7 MBq, iv administered as single dose measured after 5 mins post-injection by gamma counting; type: ADME, organism-based; conditions: in vivo
Kidney [1] = assay: Biodistribution in Wistar rat kidney at 1.7 MBq, iv administered as single dose measured after 10 mins post-injection by gamma counting; type: ADME, organism-based; conditions: in vivo
Brain [2] = assay: Biodistribution in Wistar rat brain at 1.7 MBq, iv administered as single dose measured after 30 mins post-injection by gamma counting; type: ADME, organism-based; conditions: in vivo, 0.5 h
[3] = Ratio of drug level in brain to blood in Wistar rat at 1.7 MBq, iv administered as single dose measured after 60 mins post-injection; type: ADME, organism-based
[4] = Octanol-phosphate buffer distribution coefficient, log D at pH 7.4 by shake-flask method; type: physicochemical
Blood = assay: Metabolic stability in Wistar rat blood at 30 MBq, iv after 60 mins by radio-HPLC analysis; type: ADME, organism-based; conditions: in vivo, 1 h
Kidney [5] = assay: Biodistribution in Wistar rat kidney at 1.7 MBq, iv administered as single dose measured after 60 mins post-injection by gamma counting; type: ADME, organism-based; conditions: in vivo, 1 h
Lung [6] = assay: Biodistribution in Wistar rat lung at 1.7 MBq, iv administered as single dose measured after 60 mins post-injection by gamma counting; type: ADME, organism-based; conditions: in vivo, 1 h
[7] = Biodistribution in Wistar rat urine at 1.7 MBq, iv administered as single dose measured after 60 mins post-injection by gamma counting; type: ADME, organism-based; conditions: in vivo, 1 h
[8] = Ratio of drug level in kidney to blood in Wistar rat at 1.7 MBq, iv administered as single dose measured after 5 mins post-injection; type: ADME, organism-based
[9] = Ratio of drug level in adrenal gland to blood in Wistar rat at 1.7 MBq, iv administered as single dose measured after 60 mins post-injection; type: ADME, organism-based
Harderian gland = assay: Biodistribution in Wistar rat harderian gland assessed as standard uptake value at 1.7 MBq, iv administered as single dose measured after 1 min post-injection by gamma counting; type: ADME, organism-based; conditions: in vivo
Lung [10] = assay: Biodistribution in Wistar rat lung assessed as standard uptake value at 1.7 MBq, iv administered as single dose measured after 30 mins post-injection by gamma counting; type: ADME, organism-based; conditions: in vivo, 0.5 h
Spleen = assay: Biodistribution in Wistar rat spleen assessed as standard uptake value at 1.7 MBq, iv administered as single dose measured after 60 mins post-injection by gamma counting; type: ADME, organism-based; conditions: in vivo, 1 h
Heart = assay: Biodistribution in Wistar rat heart assessed as standard uptake value at 1.7 MBq, iv administered as single dose measured after 60 mins post-injection by gamma counting; type: ADME, organism-based; conditions: in vivo, 1 h
Femur = assay: Biodistribution in Wistar rat femur assessed as standard uptake value at 1.7 MBq, iv administered as single dose measured after 5 mins post-injection by gamma counting; type: ADME, organism-based; conditions: in vivo
Adrenal gland [11] = assay: Biodistribution in Wistar rat adrenal gland at 1.7 MBq, iv administered as single dose measured after 1 min post-injection by gamma counting; type: ADME, organism-based; conditions: in vivo
Testes = assay: Biodistribution in Wistar rat testes at 1.7 MBq, iv administered as single dose measured after 1 min post-injection by gamma counting; type: ADME, organism-based, Testis; conditions: in vivo
Brain [12] = assay: Biodistribution in Wistar rat brain at 1.7 MBq, iv administered as single dose measured after 5 mins post-injection by gamma counting; type: ADME, organism-based; conditions: in vivo
Pancreas = assay: Biodistribution in Wistar rat pancreas at 1.7 MBq, iv administered as single dose measured after 5 mins post-injection by gamma counting; type: ADME, organism-based; conditions: in vivo
Adrenal gland [13] = assay: Biodistribution in Wistar rat adrenal gland at 1.7 MBq, iv administered as single dose measured after 5 mins post-injection by gamma counting; type: ADME, organism-based; conditions: in vivo

## O=C1Nc2ccccc2/C1=C/c1ccc([18F])cc1
Intestine
  Drug uptake: 13.96 %ID
Kidney [1]
  Drug uptake: 2.28 %ID
Brain [2]
  Drug uptake: 0.44 %ID
[3]
  Kp at 1 h: 3.2
[4]
  logD: 3.39
Blood
  Stability: Unstable
Kidney [5]
  Drug uptake: 0.91 %ID
Lung [6]
  Drug uptake: 0.19 %ID
[7]
  Drug uptake: 43.53 %ID
[8]
  Kp at 5 min: 4.7
[9]
  Kp at 1 h: 8.9
Harderian gland
  SUV: 1.92%
Lung [10]
  SUV: 0.47%
Spleen
  SUV: 0.13%
Heart
  SUV: 0.2%
Femur
  SUV: 0.64%
Adrenal gland [11]
  Drug uptake: 0.15 %ID
Testes
  Drug uptake: 0 %ID
Brain [12]
  Drug uptake: 1.87 %ID
Pancreas
  Drug uptake: 0.38 %ID
Adrenal gland [13]
  Drug uptake: 0.17 %ID
